US20250304549A1, “HYDROXYAMIDE DERIVATIVE AND USE THEREOF” (SICHUAN HUIYU PHARMACEUTICAL CO., LTD., priority 2022, published 2025)
pIC50: −log10 of the molar value. Where a name gives a salt, the structure may show the parent alone.

What was measured:
[1] = target: pan-HDAC; assay: In vitro enzyme inhibition assay - HDAC (HDAC-Glo I/II), pan-HDAC; format: biochemical
Summary of the method: (§1)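 Eight compound concentrations (5-fold gradient; 1 mM DMSO stock) were assayed by HDAC-Glo I/II luminescence. IC50 was obtained by four-parameter fitting.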

[2] = target: HDAC1 (Homo sapiens (Human), UniProt Q13547); assay: In vitro enzyme inhibition assay - HDAC (HDAC-Glo I/II), HDAC1; format: biochemical; settings: read-out: HDAC IC50 (nM) HDAC 1
Sequence of HDAC1 (Q13547 whole entry): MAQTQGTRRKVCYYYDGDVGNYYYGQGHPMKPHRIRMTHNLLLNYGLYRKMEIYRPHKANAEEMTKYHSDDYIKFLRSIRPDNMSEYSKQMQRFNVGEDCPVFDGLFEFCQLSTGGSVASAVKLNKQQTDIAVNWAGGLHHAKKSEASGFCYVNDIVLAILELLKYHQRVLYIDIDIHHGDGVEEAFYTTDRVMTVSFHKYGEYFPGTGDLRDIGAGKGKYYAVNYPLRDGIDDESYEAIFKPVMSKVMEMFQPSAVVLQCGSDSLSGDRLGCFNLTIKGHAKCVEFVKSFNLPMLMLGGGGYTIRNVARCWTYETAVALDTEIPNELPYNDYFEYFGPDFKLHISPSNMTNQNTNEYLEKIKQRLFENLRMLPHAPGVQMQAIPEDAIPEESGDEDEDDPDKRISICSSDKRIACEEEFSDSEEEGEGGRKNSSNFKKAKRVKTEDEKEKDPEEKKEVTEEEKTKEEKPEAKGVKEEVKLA
Method: 2. In Vitro Enzyme Inhibition Assay—HDAC
The effect of the compound on the enzymatic activity of pan-HDAC and two isoforms (HDAC1 and HDAC8) was examined using the HDAC-Glo I/II Assay and Screening System assay to assess the level of inhibition of HDAC protease activity and selectivity in each isoform. The proteins and detection reagents were from the HDAC-Glo™ I/II Assay and Screening System (Promega). A 1 mM stock solution of the compound was prepared in DMSO and diluted in a 5-fold gradient to create a series of 8 concentrations, and a specific volume of the highest concentration was diluted 25 times with HDAC Buffer to obtain 4× working solution of the compound. […] The 384-well plate was then read on a multifunctional microplate reader, with the Luminescence channel selected to record Luminescence values (RLU). The inhibition rate was calculated using the following formula: […]
Note: ‘Negative’ refers to the group without the inhibitor; ‘Blank’ refers to the group without the enzyme.
The IC50 value was calculated by fitting the inhibition rate by GraphPad Prism software, employing log (inhibitor) vs. response-Variable Slope (four parameters) model.

[3] = target: HDAC8 (Homo sapiens (Human), UniProt Q9BY41); assay: In vitro enzyme inhibition assay - HDAC (HDAC-Glo I/II), HDAC8; format: biochemical; settings: read-out: HDAC IC50 (nM) HDAC 8
Sequence of HDAC8 (Q9BY41 whole entry): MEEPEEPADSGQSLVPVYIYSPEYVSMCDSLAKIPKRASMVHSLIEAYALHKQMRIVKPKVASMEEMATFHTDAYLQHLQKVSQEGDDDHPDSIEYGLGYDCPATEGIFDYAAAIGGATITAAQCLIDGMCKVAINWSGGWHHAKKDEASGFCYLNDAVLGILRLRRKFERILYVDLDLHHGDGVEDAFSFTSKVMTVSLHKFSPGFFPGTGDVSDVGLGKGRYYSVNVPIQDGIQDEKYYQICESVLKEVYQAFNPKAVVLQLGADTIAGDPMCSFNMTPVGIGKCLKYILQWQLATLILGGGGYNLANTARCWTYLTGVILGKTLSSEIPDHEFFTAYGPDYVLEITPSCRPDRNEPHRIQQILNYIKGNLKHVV
Summary of the method: as §1

[4] = system: NCI-H1417 cells; assay: In vitro cell inhibition assay - H1417 cell proliferation (CellTiter-Glo); format: cell-based
Summary of the method: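 Cells exposed to 8 compound concentrations (5-fold dilutions) in BEGM with 10% FBS for 7 days at 37° C., 5% CO2. Viable cells measured by CellTiter-Glo luminescence; inhibition versus no-inhibitor and no-cell controls, IC50 fitted.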

[5] = target: LSD1 (Homo sapiens (Human), UniProt O60341); assay: In vitro enzyme inhibition assay - LSD1 (HTRF); format: biochemical
[6] = system: NCI-H69 cells; assay: In vitro cell inhibition assay - NCI-H69 cell proliferation (CellTiter-Glo); format: cell-based
Summary of the method: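 Cells seeded at 1×10^3 per well and incubated overnight at 37° C., 5% CO2, then treated with 8-point 5-fold compound dilutions in RPMI-640 with 20% FBS for 7 days. Viable cells measured by CellTiter-Glo luminescence; IC50 fitted from inhibition relative to no-inhibitor and no-cell controls.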

[7] = system: DU145 cells; assay: In vitro cell inhibition assay - DU145 cell proliferation (CellTiter-Glo); format: cell-based
Summary of the method: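 Viability read-out was CellTiter-Glo luminescence after a 6-day, 37° C exposure of DU145 cells (1×10^3/well, 10% FBS RPMI-640) to 8 compound concentrations in 5-fold steps.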

[8] = system: NCI-H526 cells; assay: In vitro cell inhibition assay - NCI-H526 cell proliferation (CellTiter-Glo); format: cell-based; settings: H526 small cell lung cancer cell proliferation, 5 days
Method: 6. In Vitro Cell Inhibition Assay—NCI-H526 Cell Proliferation
The inhibitory effect of the compounds on cell proliferation was assessed by detecting the number of viable cells using CellTiter-Glo® reagent. NCI-H526 cells in the logarithmic growth phase were collected and inoculated into transparent bottom 96-well plates at a density 1×10^3 cells per well with 100 μL of medium, and incubated at 37° C., 5% CO2 overnight. The compounds were sequentially diluted in a 5-fold concentration gradient with DMSO to obtain 8 different concentrations. These were then diluted with RPMI-640 (containing 10% FBS) cell culture medium to obtain the compound working solution (2×), which was added to the cell supernatant at 100 μL per well. The incubation continued for 5 days at 37° C., 5% CO2. The plate was then removed and equilibrated at room temperature (25° C.) along with the CellTiter-Glo® mixing reagent for 10-30 minutes; 80 μL of the culture medium was carefully aspirated from each well, and 80 μL of CellTiter-Glo® reagent was added. The cells were thoroughly mixed with the CellTiter-Glo® mixing reagent using a microplate shaker for 2 min. and then incubated at room temperature for 10 min. The 96-well plate was subsequently placed on a multifunctional microplate reader to record the Luminescence values (RLU).
The inhibition rate was calculated using the following formula: […]
Note: ‘Negative’ refers to the group without inhibitors; ‘Blank’ refers to the group without cells.
The IC50 value was determined by fitting the inhibition rate by GraphPad Prism software.

[9] = Homo sapiens, NCI-H1417, H1417 small cell lung cancer cell proliferation
[10] = Homo sapiens, NCI-H69, H69 small cell lung cancer cell proliferation
[11] = Homo sapiens, DU-145, Du145 prostate cancer cell proliferation
[12] = H1417 small cell lung cancer cell proliferation
[13] = H69 small cell lung cancer cell proliferation
[14] = Du145 prostate cancer cell proliferation

Row | IC50 [1] [nM] | IC50 [2] [nM] | IC50 [3] [nM] | pIC50 [4, 9] | pIC50 [5] | pIC50 [6, 10] | pIC50 [7, 11] | pIC50 ([8]; Homo sapiens, NCI-H526, 120 h) | pIC50 [4, 12] | pIC50 [6, 13] | pIC50 [7, 14] | pIC50 [8] | Structure (SMILES)
1 |  |  |  | 8.18 | 8.71 | 8.07 | 7.59 | 7.99 |  |  |  |  | COc1ccc(-c2cnc(N3CCC(NCc4ccc(/C=C/C(=O)NO)cc4)CC3)c(C#N)c2-c2ccc(C#N)c(F)c2)cc1O [Example 37, (E)-3-(4-(((1-(3-cyano-4-(4-cyano-3-fluorophenyl)-5-(3-hydroxy-4-methoxyphenyl)pyridin-2-yl)piperidin-4-yl)amino)methyl)phenyl)-N-hydroxyacrylamide hydrochloride]
2 | 16.4 |  | 16.3 | 7.13 | 7.40 | 7.00 | 6.83 | 6.97 |  |  |  |  | COc1cc(-c2cnc(N3CCC(NCc4cnc(/C=C/C(=O)NO)nc4)CC3)c(C#N)c2-c2ccc(C#N)c(F)c2)ccc1O [Example 96, (E)-3-(5-((1-(3-Cyano-4-(4-cyano-3-fluorophenyl)-5-(4-hydroxy-3-methoxyphenyl)pyridin-2-yl)piperidin-4-yl)amino)methyl) pyrimidin-2-yl)-N-hydroxyacrylamide formate]
3 | 0.8 |  | 13 |  | 9.44 |  |  |  | 8.77 | 8.38 | 7.98 | 8.34 | COc1ccc(-c2cnc(N3CCC(NCc4ccc(/C=C/C(=O)NO)nc4)CC3)c(C#N)c2-c2ccc(C#N)c(F)c2)cc1O [Example 117, (E)-3-(5-((1-(3-Cyano-4-(4-cyano-3-fluorophenyl)-5-(3-hydroxy-4-methoxyphenyl)pyridin-2-yl)piperidin-4-yl)amino)methyl) pyridin-2-yl)-N-hydroxyacrylamide formate]
4 |  |  |  |  | 9.13 |  |  |  | 8.38 | 7.12 | 6.95 | 7.15 | COc1ncc(-c2cnc(N3CCC(NCc4ccc(/C=C/C(=O)NO)cc4)CC3)c(C#N)c2-c2ccc(C#N)c(F)c2)cc1O [Example 123, (E)-3-(4-((1-(5-Cyano-4-(4-cyano-3-fluorophenyl)-5′-hydroxy-6′-methoxy-[3,3′-bipyridin]-6-yl)piperidin-4-yl)amino)methyl) phenyl)-N-hydroxyacrylamide trifluoroacetate]
5 | 197 |  | 132 | 8.75 | 8.95 | 6.55 | 6.15 | 6.55 |  |  |  |  | COc1ccc(-c2cnc(N3CCC(NCc4ccc5cc(C(=O)NO)sc5c4)CC3)c(C#N)c2-c2ccc(C#N)c(F)c2)cc1O [Example 126, 6-(1-(3-Cyano-4-(4-cyano-3-fluorophenyl)-5-(3-hydroxy-4-methoxyphenyl)pyridin-2-yl)piperidin-4-yl)amino)methyl)-N-hydroxybenzothio phene-2-carboxamide formate]
6 |  |  |  | 8.58 |  | 7.88 | 7.66 | 8.21 |  |  |  |  | Cc1ccc(-c2cnc(N3CCC(NCc4cnc(/C=C/C(=O)NO)nc4)CC3)c(C#N)c2-c2ccc(C#N)c(F)c2)cc1O [Example 148, (E)-3-(5-(((1-(3-Cyano-4-(4-cyano-3-fluorophenyl)-5-(3-hydroxy-4-methylphenyl)pyridin-2-yl)piperidin-4-yl)amino)methyl)pyrimidin-2-yl)-N-hydroxyacrylamide formate]
7 |  |  |  | 8.68 |  | 7.63 | 7.47 | 7.84 |  |  |  |  | COc1ccc(-c2cnc(N3CCCC(NCc4ccc(/C=C/C(=O)NO)cc4)CC3)c(C#N)c2-c2ccc(C#N)c(F)c2)cc1O (centres unmarked) [Example 149, (E)-3-(4-(((1-(3-Cyano-4-(4-cyano-3-fluorophenyl)-5-(3-hydroxy-4-methoxyphenyl)pyridin-2-yl)azepan-4-yl)amino)methyl)phenyl)-N-hydroxyacrylamide formate]

Continued, compound first:

Row | Structure (SMILES) | IC50 [1] [nM] | IC50 [2] [nM] | IC50 [3] [nM] | pIC50 [4, 9] | pIC50 [5] | pIC50 [6, 10] | pIC50 [7, 11] | pIC50 ([8]; Homo sapiens, NCI-H526, 120 h) | pIC50 [4, 12] | pIC50 [6, 13] | pIC50 [7, 14] | pIC50 [8]
8 | COc1ccc(-c2c(OCCCCCCC(=O)NO)cc(N3CCC(N)CC3)nc2-c2ccc(C#N)c(F)c2)cc1O [Example 1, 7-((6-(4-aminopiperidin-1-yl)-2-(4-cyano-3-fluorophenyl)-3-(3-hydroxy-4-methoxyphenyl)pyridin-4-yl)oxy)-N-hydroxyheptanamide hydrochloride] | 17.5 | 68.1 | 215 | 6.67 |  |  |  |  |  |  |  | 
9 | COc1ccc(-c2c(-c3ccc(C#N)c(F)c3)nc(N3CCC(N)CC3)n3ccnc23)cc1OCCCCCCC(=O)NO [Example 20, 7-(5-(5-(4-aminopiperidin-1-yl)-7-(4-cyano-3-fluorophenyl)imidazo[1,2-c]pyrimidin-8-yl)-2-methoxyphenoxy)-N-hydroxyheptanamide hydrochloride] | 96.5 | 311 | 446 | 6.07 | 7.77 |  |  |  |  |  |  | 
10 | COc1ccc(-c2cnc(N3CCC(NCc4ccc(/C=C/C(=O)NO)cc4)CC3)c(F)c2-c2ccc(C#N)c(F)c2)cc1O [Example 76, (E)-3-(4-(((1-(4-(4-cyano-3-fluorophenyl)-3-fluoro-5-(3-hydroxy-4-methoxyphenyl)pyridin-2-yl)piperidin-4-yl)amino)methyl)phenyl)-N-hydroxyacrylamide formate] |  |  |  | 7.93 |  | 8.40 | 7.96 | 8.08 |  |  |  | 
11 | COc1ccc(-c2cnc(N3CCC(NCc4ccc(/C=C/C(=O)NO)cc4)CC3)cc2-c2ccc(C#N)c(F)c2)cc1O [Example 80, (E)-3-(4-(((1-(4-(4-cyano-3-fluorophenyl)-5-(3-hydroxy-4-methoxyphenyl)pyridin-2-yl)piperidin-4-yl)amino)methyl)phenyl)-N-hydroxyacrylamide formate] | 14.9 |  | 165 | 7.85 |  | 7.56 | 7.25 | 7.53 |  |  |  | 
12 | COc1ccc(-c2ccc(N3CCC(NCc4ccc(/C=C/C(=O)NO)cc4)CC3)c(C#N)c2-c2ccc(C#N)c(F)c2)cc1O [Example 84, (E)-3-(4-(((1-(3′,4″-dicyano-3″-fluoro-3-hydroxy-4-methoxy-[1,1′:2′,1″-terphenyl]-4′-yl)piperidin-4-yl)amino)methyl)phenyl)-N-hydroxyacrylamide] | 5.45 |  | 73.6 | 8.40 | 9.21 | 7.48 | 6.94 | 7.16 |  |  |  | 
13 | N#Cc1ccc(-c2c(-c3ccc(/C=C/C(=O)NO)c(O)c3)cnc(N3CCC(NCc4ccc(/C=C/C(=O)NO)cc4)CC3)c2C#N)cc1F [Example 90] |  |  |  | 7.38 |  | 8.19 | 7.34 | 7.46 |  |  |  | 
14 | N#Cc1ccc(-c2c(-c3ccc4cn[nH]c4c3)cnc(N3CCC(NCc4ccc(/C=C/C(=O)NO)cc4)CC3)c2C#N)cc1F [Example 142, (E)-3-(4-(((1-(3-Cyano-4-(4-cyano-3-fluorophenyl)-5-(1H-indazol-6-yl)pyridin-2-yl)piperidin-4-yl)amino)methyl)phenyl)-N-hydroxyacrylamide formate] |  |  |  | 8.12 | 8.74 | 8.33 | 8.37 | 8.34 |  |  |  | 
